The test system of experiment [1] is pre-activated CD4 T cells and Raji cells. As to the kind of experiment: Raji CD4 T Cell IL2 Assay. The class given is cell-based.
The target in experiment [2] is T1, human DGKα (Homo sapiens (Human), UniProt P23743). The experiment can be described thus: DGKα LIPGLO assay (extruded liposome substrate). The class given is biochemical. The gist of the method: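 Human full-length DGKα, His-tagged and produced in Sf9 cells, assayed at 20 nM (4× stock) on extruded liposomes of PS, 0.25 mM DAG and 2.75 mM PC, preincubated 10 min. Reaction started with 300 μM ATP (stock) and ran 1 h in MOPS pH 7.5/MgCl2/CaCl2/DTT buffer.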

Experiment [3] addresses T2, human DGKζ (Homo sapiens (Human), UniProt Q13574). As to the kind of experiment: DGKζ assay (detergent/lipid micelle substrate). It counts as biochemical. An outline of the steps: (§1)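 Full-length human DGKα or DGKζ (C-terminal His tag, Sf9-expressed; 20 nM 4× stock) was preincubated 10 min at room temperature with PS/DAG octyl glucoside micelles in MOPS pH 7.5 buffer with MgCl2, CaCl2 and DTT. It was then started with ATP (300 uM addition) and run for 1 hr, with ADP-Glo luminescence read-out.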

Experiment [4] has as its target T2, human DGKζ. The experiment can be described thus: DGKζ LIPGLO assay (extruded liposome substrate). The class given is biochemical. The gist of the method:
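Recombinant DGKζ (Sf9-expressed, Ni/SEC/SP-purified) preincubated 10 min with extruded 100 nm PC/DAG/PS liposomes in 50 mM MOPS pH 7.5, 100 mM NaCl, 10 mM MgCl2, 1 μM CaCl2, 1 mM DTT. Started with 300 uM ATP solution (stock, pre-addition); 1 hr reaction. ADP-Glo luminescence; IC50 from 11 concentrations.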

In experiment [5] the target is T1, human DGKα. The experiment can be described thus: biochemical. The following applies: detergent/lipid micelle substrate; read-out: DGKα IC50. An outline of the steps:
as §1

Where [6] appears, read: detergent/lipid micelle substrate, read-out: DGKζ IC50.
Where [7] appears, read: extruded liposome substrate, read-out: DGKζ LIPGLO IC50.
The mark [8] stands for this setting: DGKζ LIPGLO IC50, extruded liposome substrate.

pIC50: −log10 of the molar value. Read-outs that look alike come from different tables or passages of the source.

T2 sequence (Q13574 other isoform, or with tags, fused parts or gaps): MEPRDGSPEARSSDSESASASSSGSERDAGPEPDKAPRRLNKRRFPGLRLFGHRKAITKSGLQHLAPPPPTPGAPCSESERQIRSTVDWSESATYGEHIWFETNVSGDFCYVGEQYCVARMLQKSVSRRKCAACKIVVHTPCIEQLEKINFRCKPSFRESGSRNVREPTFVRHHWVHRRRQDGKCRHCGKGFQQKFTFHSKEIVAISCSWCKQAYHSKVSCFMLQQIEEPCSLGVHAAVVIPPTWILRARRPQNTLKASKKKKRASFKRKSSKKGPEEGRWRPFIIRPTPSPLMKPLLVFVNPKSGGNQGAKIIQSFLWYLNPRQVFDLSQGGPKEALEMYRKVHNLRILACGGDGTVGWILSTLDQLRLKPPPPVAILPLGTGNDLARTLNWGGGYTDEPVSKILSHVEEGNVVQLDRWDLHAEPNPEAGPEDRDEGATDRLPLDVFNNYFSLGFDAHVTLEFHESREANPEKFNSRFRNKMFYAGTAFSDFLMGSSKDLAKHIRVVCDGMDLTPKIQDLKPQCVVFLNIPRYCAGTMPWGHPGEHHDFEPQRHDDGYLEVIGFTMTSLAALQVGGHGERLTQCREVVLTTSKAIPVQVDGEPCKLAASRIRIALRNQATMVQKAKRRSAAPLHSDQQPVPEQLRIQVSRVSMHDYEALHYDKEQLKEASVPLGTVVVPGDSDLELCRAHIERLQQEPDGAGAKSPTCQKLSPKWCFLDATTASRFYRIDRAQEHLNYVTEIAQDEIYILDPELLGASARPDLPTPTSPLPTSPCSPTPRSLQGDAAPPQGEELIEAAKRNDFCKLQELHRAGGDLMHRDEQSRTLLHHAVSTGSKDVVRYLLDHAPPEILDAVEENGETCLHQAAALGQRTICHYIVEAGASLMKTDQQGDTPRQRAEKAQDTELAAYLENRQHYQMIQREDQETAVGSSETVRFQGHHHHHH
T1 sequence (P23743 other isoform, or with tags, fused parts or gaps): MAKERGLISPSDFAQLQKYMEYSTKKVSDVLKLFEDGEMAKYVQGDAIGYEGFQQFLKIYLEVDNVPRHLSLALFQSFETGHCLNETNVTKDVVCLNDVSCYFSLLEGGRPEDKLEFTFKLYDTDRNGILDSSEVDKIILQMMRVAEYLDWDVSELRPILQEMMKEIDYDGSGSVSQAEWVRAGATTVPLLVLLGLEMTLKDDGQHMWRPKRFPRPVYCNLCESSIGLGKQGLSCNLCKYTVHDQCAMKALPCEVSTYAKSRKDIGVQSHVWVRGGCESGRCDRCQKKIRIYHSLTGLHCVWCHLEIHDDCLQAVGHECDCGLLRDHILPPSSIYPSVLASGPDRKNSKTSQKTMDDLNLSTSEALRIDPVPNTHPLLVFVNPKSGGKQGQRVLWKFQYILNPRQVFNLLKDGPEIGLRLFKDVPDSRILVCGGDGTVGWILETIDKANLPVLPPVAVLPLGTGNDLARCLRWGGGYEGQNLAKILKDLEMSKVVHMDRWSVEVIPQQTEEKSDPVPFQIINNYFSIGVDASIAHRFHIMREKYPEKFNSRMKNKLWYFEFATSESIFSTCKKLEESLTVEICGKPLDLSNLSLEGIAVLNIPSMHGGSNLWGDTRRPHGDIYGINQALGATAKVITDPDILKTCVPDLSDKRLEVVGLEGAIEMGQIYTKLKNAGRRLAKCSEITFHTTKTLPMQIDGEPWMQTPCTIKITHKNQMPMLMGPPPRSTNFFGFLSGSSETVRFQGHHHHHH

One may read the pIC50 as −log10 of the IC50, conventionally taken in molar units. As for `Cc1cccc(OCc2cncc(C#N)c2)c1C(c1ccc(F)cc1)N1CCN(c2c([N+](=O)[O-])c(=O)n(C)c3ccc(Br)nc23)CC1` (single isomer, unassigned) [Example 90, 5-((2-((4-(6-bromo-1-methyl-3-nitro-2-oxo-1,2-dihydro-1,5-naphthyridin-4-yl)piperazin-1-yl)(4-fluorophenyl)methyl)-3-methylphenoxy)methyl)nicotinonitrile], the pIC50 in experiment [1] was 6.20; against human DGKα [2] it was below 3.62; on human DGKζ [3] (setting [6]), 3.72; at human DGKζ [4] (setting [7]), 4.82; at human DGKα [5], 4.09.

In the case of `Cn1c(=O)c([N+](=O)[O-])c(N2CCN(C(c3ccc(F)cc3)c3ccccc3O)CC2)c2nc(C#N)ccc21` (single isomer, unassigned) [Example 99, 8-(4-((4-fluorophenyl)(2-hydroxyphenyl)methyl)piperazin-1-yl)-5-methyl-7-nitro-6-oxo-5,6-dihydro-1,5-naphthyridine-2-carbonitrile], the pIC50 in experiment [1] was 8.03; against human DGKα [2] it was 6.14; at human DGKζ [3] (setting [6]) it was 6.17; at human DGKζ [4] (setting [7]), 7.40; at human DGKα [5], 6.39.

Regarding `COc1cc(F)ccc1C(c1ccc(F)cc1)N1CCN(c2c([N+](=O)[O-])c(=O)n(C)c3ccc(C#N)nc23)CC1` (single isomer, unassigned) [Example 125, 8-(4-((4-fluoro-2-methoxyphenyl)(4-fluorophenyl)methyl)piperazin-1-yl)-5-methyl-7-nitro-6-oxo-5,6-dihydro-1,5-naphthyridine-2-carbonitrile], the pIC50 is 7.64 in experiment [1] (Homo sapiens, Raji); 4.96 against human DGKα [2]; 5.10 on human DGKζ [3] (DGKζ IC50, detergent/lipid micelle substrate); 5.64 at human DGKζ [4] (setting [8]); 5.37 on human DGKα [5].

As for `C#CCn1c(=O)c([N+](=O)[O-])c(N2CCN(C(c3ccc(F)cc3)c3ccc(F)cc3OC)CC2)c2nc(C#N)ccc21` (single isomer, unassigned) [Example 127, 8-(4-((4-fluoro-2-methoxyphenyl)(4-fluorophenyl)methyl)piperazin-1-yl)-7-nitro-6-oxo-5-(prop-2-yn-1-yl)-5,6-dihydro-1,5-naphthyridine-2-carbonitrile], the pIC50 was 8.19 in experiment [1]; 5.54 on human DGKα [2]; 6.60 on human DGKζ [3] (setting [6]); 7.52 at human DGKζ [4] (setting [7]); 5.38 on human DGKα [5].

As for `C#CCn1c(=O)c([N+](=O)[O-])c(N2CCN(C(c3ccc(F)cc3)c3ccc(F)cc3OC)CC2)c2nc(C#N)ccc21` (single isomer, unassigned) [Example 128, 8-(4-((4-fluoro-2-methoxyphenyl)(4-fluorophenyl)methyl)piperazin-1-yl)-7-nitro-6-oxo-5-(prop-2-yn-1-yl)-5,6-dihydro-1,5-naphthyridine-2-carbonitrile], the pIC50 in experiment [1] was 7.00; at human DGKα [2], 4.74; at human DGKζ [3] (setting [6]), 5.82; on human DGKζ [4] (setting [7]) it was 7.32; on human DGKα [5], 4.68.

Turning to `C#CCn1c(=O)c([N+](=O)[O-])c(N2CCN(C(CC)c3ccc(F)cc3)CC2)c2nc(C#N)ccc21` (single isomer, unassigned) [Example 140, 8-{4-[1-(4-fluorophenyl)propyl]piperazin-1-yl}-7-nitro-6-oxo-5-(prop-2-yn-1-yl)-5,6-dihydro-1,5-naphthyridine-2-carbonitrile], the pIC50 in experiment [1] (Homo sapiens, Raji) is 8.22; at human DGKα [2], 5.57; at human DGKζ [3] (setting [6]), 6.22; on human DGKζ [4] (setting [7]), 6.89; on human DGKα [5] it was 6.19.

For the compound `CC(c1ccc(F)cc1)N1CCN(c2c(C#N)c(=O)n(CC3CC3)c3ccc(Br)nc23)CC1` (single isomer, unassigned) [Example 164, 6-bromo-1-(cyclopropylmethyl)-4-(4-(1-(4-fluorophenyl)ethyl)piperazin-1-yl)-2-oxo-1,2-dihydro-1,5-naphthyridine-3-carbonitrile], the negative logarithm of the IC50 (pIC50) is 5.59 in experiment [1]; 4.09 against human DGKα [2]; below 3.62 at human DGKζ [3] (read-out: DGKζ IC50, detergent/lipid micelle substrate); 4.23 against human DGKζ [4] (setting [8]); below 3.62 at human DGKα [5].

`CC(C)C(c1ccc(F)cc1)N1CCN(c2c(C#N)c(=O)n(C)c3ccc(Cl)nc23)CC1` (single isomer, unassigned) [Example 316, 6-chloro-4-{4-[1-(4-fluorophenyl)-2-methylpropyl]piperazin-1-yl}-methyl-2-oxo-1,2-dihydro-1,5-naphthyridine-3-carbonitrile]: the pIC50 in experiment [1] is 6.39; on human DGKα [2], 6.60; on human DGKζ [3] (setting [6]), below 3.62; at human DGKζ [4] (setting [7]), below 3.62; at human DGKα [5] it was 6.40.

For `Cn1c(=O)c([N+](=O)[O-])c(N2CCN(C(c3ccc(F)cc3)c3ccc(F)cc3)CC2)c2ncccc21` [Example 3, 4-(4-(bis(4-fluorophenyl)methyl)piperazin-1-yl)-1-methyl-3-nitro-1,5-naphthyridin-2(1H)-one], the pIC50 in experiment [1] (Homo sapiens, Raji) was 6.51; against human DGKα [2] it was 5.42; on human DGKζ [3] (setting [6]) it was below 3.62; on human DGKζ [4] (setting [7]) it was 5.64; on human DGKα [5] it was 5.68.

Consider `Cn1c(=O)c(C#N)c(N2CCN(C(c3ccc(F)cc3)C3CC3)CC2)c2nc(Br)ccc21` (stereo not shown) [Example 35, 6-bromo-4-{4-[cyclopropyl(4-fluorophenyl)methyl]piperazin-1-yl}-1-methyl-2-oxo-1,2-dihydro-1,5-naphthyridine-3-carbonitrile], for which the pIC50 in experiment [1] (Homo sapiens, Raji) was 6.68; at human DGKα [2] it was 6.00; at human DGKζ [3] (setting [6]), below 3.62; on human DGKζ [4] (setting [7]), 4.09; on human DGKα [5] it was 6.85.

As for `CCn1ccc2c(CN3CCN(c4c([N+](=O)[O-])c(=O)n(C)c5ccc(Br)nc45)CC3)cccc21` [Example 54, 6-bromo-4-(4-((1-ethyl-H-indol-4-yl)methyl)piperazin-1-yl)-1-methyl-3-nitro-1,5-naphthyridin-2(1H)-one], the pIC50 in experiment [1] (Homo sapiens, Raji) was 7.20; against human DGKα [2] it was 5.51; on human DGKζ [3] (setting [6]), 5.14; at human DGKζ [4] (setting [7]) it was 5.89; on human DGKα [5], 6.09.

Take `C#CCn1c(=O)c(C#N)c(N2CCN(Cc3ccccc3O)CC2)c2nc(Br)ccc21` [Example 65, 6-bromo-4-(4-(2-hydroxybenzyl)piperazin-1-yl)-2-oxo-1-(prop-2-yn-1-yl)-1,2-dihydro-1,5-naphthyridine-3-carbonitrile]: the pIC50 in experiment [1] (Homo sapiens, Raji) is 8.26; on human DGKα [2], 6.29; at human DGKζ [3] (setting [6]) it was 4.70; on human DGKζ [4] (setting [7]) it was 5.43; at human DGKα [5] it was 6.54.

On to `C#CCn1c(=O)c(C#N)c(N2CCN(Cc3ccc(C)cc3O)CC2)c2nc(Br)ccc21` [Example 66, 6-bromo-4-(4-(2-hydroxy-4-methylbenzyl)piperazin-1-yl)-2-oxo-1-(prop-2-yn-1-yl)-1,2-dihydro-1,5-naphthyridine-3-carbonitrile], for which the pIC50 in experiment [1] (Homo sapiens, Raji) was 7.32; on human DGKα [2], 6.64; on human DGKζ [3] (setting [6]), 4.89; at human DGKζ [4] (setting [7]) it was 5.77; on human DGKα [5], 7.08.

In the case of `C#CCn1c(=O)c(C#N)c(N2CCN(Cc3ccc(F)cc3O)CC2)c2nc(Br)ccc21` [Example 67, 6-bromo-4-(4-(4-fluoro-2-hydroxybenzyl)piperazin-1-yl)-2-oxo-1-(prop-2-yn-1-vi)-1,2-dihydro-1,5-naphthyridine-3-carbonitrile], the negative-log IC50 (pIC50) in experiment [1] (Homo sapiens, Raji) was 8.18; at human DGKα [2], 5.32; on human DGKζ [3] (setting [6]), 4.89; on human DGKζ [4] (setting [7]) it was 4.92; on human DGKα [5] it was 6.89.

With `C#CCn1c(=O)c([N+](=O)[O-])c(N2CCN(C(c3ccc(F)cc3)c3ccc(F)cc3)CC2)c2nc(C#N)ccc21` [Example 118, 8-(4-(bis(4-fluorophenyl)methyl)piperazin-1-yl)-7-nitro-6-oxo-5-(prop-2-yn-1-yl)-5,6-dihydro-1,5-naphthyridine-2-carbonitrile], the negative-log IC50 (pIC50) was 7.74 in experiment [1] (Homo sapiens, Raji); 5.89 against human DGKα [2]; 6.64 at human DGKζ [3] (setting [6]); 7.21 on human DGKζ [4] (setting [7]); 5.38 at human DGKα [5].

For `CC(c1ccc(F)cc1)N1CCN(c2c([N+](=O)[O-])c(=O)n(CC#N)c3ccc(C#N)nc23)CC1` (stereo not shown) [Example 151, 5-(cyanomethyl)-8-(4-(1-(4-fluorophenyl)ethyl)piperazin-1-yl)-7-nitro-6-oxo-5,6-dihydro-1,5-naphthyridine-2-carbonitrile], the pIC50 in experiment [1] (Homo sapiens, Raji) was 6.06; on human DGKα [2] it was 5.14; at human DGKζ [3] (setting [6]), 4.57; at human DGKζ [4] (setting [7]), 5.51; on human DGKα [5] it was 4.42.

Turning to `CC(c1ccc(F)cc1)N1CCN(c2c(C#N)c(=O)n(CC#N)c3ccc(Br)nc23)CC1` (stereo not shown) [Example 154, 6-bromo-1-(cyanomethyl)-4-(4-(1-(4-fluorophenyl)ethyl)piperazin-1-yl)-2-oxo-1,2-dihydro-1,5-naphthyridine-3-carbonitrile], the pIC50 was 6.06 in experiment [1] (Homo sapiens, Raji); 4.09 at human DGKα [2]; below 3.62 on human DGKζ [3] (setting [6]); 4.14 on human DGKζ [4] (setting [7]); 4.35 at human DGKα [5].

The record behind these values is US11866430B2, “Naphthyridinone compounds useful as T cell activators” (priority 2018, dated 2024).
